From patent US8026245B2, “HIV replication inhibiting purine derivatives” (Janssen Pharmaceutica N.V., priority 2003, dated 2011)

Experiments:
[1] = Method B: cytotoxicity in mock-infected MT-4 cells engineered with GFP under a constitutional promotor; assay type: cell-based; settings: human; Method B; mock-infected MT-4 cells with GFP, fluorescence reduced by 50%; read-out: pCC50 (−logCC50) (converted)
Method: In these cells, engineered with GFP (and an HIV-specific promotor), ongoing HIV-infection was measured fluorometrically. Cytotoxicity is measured in the same cells, but engineered with GFP under a constitutional promotor. The infection (or inhibition thereof) of HIV infected cells and the fluorescence of mock-infected cells is assessed by the fluorescent GFP signal generated by the two above mentioned cell lines.
The 50% cytotoxic concentration (CC50 in μM) was defined as the concentration of compound that reduced fluorescence of the mock-infected cells by 50%.

[2] = test system: HIV-1; experiment: microbe, parasite or virus in culture; settings: Human immunodeficiency virus 1, MT4, read-out: pEC50 (−logEC50) (converted)
[3] = test system: HIV-1; settings: Method B; selectivity index, ratio of CC50 to EC50
[4] = test system: mock-infected MT-4 cells; assay type: cell-based
Method: An HIV-1 transformed T4-cell line, MT-4, which was previously shown (Koyanagi et al., Int. J. Cancer, 36, 445-451, 1985) to be highly susceptible to and permissive for HIV infection, served as the target cell line. Inhibition of the HIV-induced cytopathic effect was used as the end point. The viability of both HIV- and mock-infected cells was assessed spectrophotometrically via the in situ reduction of 3-(4,5-dimethylthiazol-2-yl)-2,5-diphenyltetrazolium bromide (MTT). The 50% cytotoxic concentration (CC50 in M) was defined as the concentration of compound that reduced the absorbance of the mock-infected control sample by 50%. The percent protection achieved by the compound in HIV-infected cells was calculated by the following formula:

[5] = test system: HIV-1; settings: Method A; for pEC50 (−logEC50): MT-4 cells, HIV-infected, MTT, 50% protection; for pSI (pCC50-pEC50): selectivity index, ratio of CC50 to EC50
Method: An […] T4-cell line, MT-4, which was previously shown (Koyanagi et al., Int. J. Cancer, 36, 445-451, 1985) to be highly susceptible to and permissive for HIV infection, served as the target cell line. Inhibition of the HIV-induced cytopathic effect was used as the end point. The viability of both HIV- and mock-infected cells was assessed spectrophotometrically via the in situ reduction of 3-(4,5-dimethylthiazol-2-yl)-2,5-diphenyltetrazolium bromide (MTT). The 50% cytotoxic concentration (CC50 in M) was defined as the concentration of compound that reduced the absorbance of the mock-infected control sample by 50%. The percent protection achieved by the compound in HIV-infected cells was calculated by the following formula:
[formula] whereby (ODT)HIV is the optical density measured with a given concentration of the test compound in HIV-infected cells; (ODC)HIV is the optical density measured for the control untreated HIV-infected cells; (ODC)MOCK is the optical density measured for the control untreated mock-infected cells; all optical density values were determined at 540 nm. The dose achieving 50% protection according to the above formula was defined as the 50% effective concentration (EC50 in M). The ratio of CC50 to EC50 was defined as the selectivity index (SI). Method B

Compound	CC50 [1] [nM]	EC50 [2] [nM]	pSI (pEC50 − pCC50) [3]	pCC50 (−logCC50) [4]	pEC50 (−logEC50) [5] [M]	pSI (pCC50-pEC50) [5]
COc1ccc(Cn2cnc3c(Nc4ccc(C#N)cc4)nc(Nc4c(C)cc(/C=C/C#N)cc4C)nc32)cc1 [Compound 73]	> 25100	5.01	>3.7			
CCn1cnc2c(Nc3c(C)cc(/C=C/C#N)cc3OC)nc(Nc3ccc(C#N)cc3)nc21 [Compound 48]	> 25100	0.631	>4.6			
COc1ccc(Cn2cnc3c(Nc4ccc(C#N)cc4)nc(Nc4c(C)cc(C#N)cc4C)nc32)cc1 [Compound 72]	> 25100	3.16	>3.9			
COc1cc(/C=C/C#N)cc(C)c1Nc1nc(Nc2ccc(C#N)cc2)nc2c1ncn2CC#N [Compound 52]	2000	0.501	3.6			
Cc1cc(C)c(Nc2nc(Nc3ccc(C#N)cc3)nc3[nH]cnc23)c(C)c1 [Compound 24]				4.3	8.4	−4.1
COc1cc(C)c(Nc2nc(Nc3ccc(C#N)cc3)nc3[nH]cnc23)c(C)c1 [Compound 25]				<4.5	8.5	<−4
COc1ccc(Cn2cnc3c(Nc4c(C)cc(/C=C/C#N)cc4C)nc(Nc4ccc(C#N)cc4)nc32)cc1 [Compound 3]	1260	3.16	−2.6			
Cc1cc(C#N)cc(C)c1Oc1nc(Nc2ccc(C#N)cc2)nc2[nH]cnc12 [Compound 28]				<4.6	9.0	<−4.4
Cc1cc(C)c(Oc2nc(Nc3ccc(C#N)cc3)nc3[nH]cnc23)c(C)c1 [Compound 23]				<4.6	8.2	<−3.6
